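In this assay, cells in 96-well plates receive the compound at five concentrations for 48 hours. Endpoints are linearly interpolated between the surrounding concentrations. Definition used: TGI = concentration required for complete inhibition of growth.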 Some results are limits rather than exact numbers.

In the first assay the test system is NCI/ADR-RES ovarian. Nature of the assay: inhibition of tumour cell growth, NCI panel, 48 h.
`CC(=O)OCC1OC(SC2=N/C(=C\c3cc4c(=O)c5ccccc5sc4s3)C(=O)N2c2ccccc2)C(OC(C)=O)C(OC(C)=O)C1OC(C)=O` (configuration not stated) returned a TGI of over 100 µM.

`CCOC(=O)N(Cc1cccs1)c1cc(OC)c(OC)c(OC)c1` showed a TGI of 29.2 µM.

For the compound `COC12OC3(C4OC41)C(C(=O)O[C@H]3CO[Si](C)(C)C(C)(C)C)C2C(=O)Oc1ccccc1` (some centres not stated), the TGI was over 100 µM.

Another assay has as its system OVCAR-5 ovarian. Kind of assay: inhibition of tumour cell growth, NCI panel, 48 h.
The compound `NC(=O)c1cc2cc(Cl)cc(Cl)c2oc1=Nc1ccc(F)cc1` gave a TGI of 54.6 µM.

The compound `COc1ccc2nc(-n3c(/C=C/c4ccccc4O)nc4ccccc4c3=O)sc2c1` had a TGI of over 100 µM.

Regarding `CC#CC#C/C=C1/O[C@]2(CCC(OC(C)=O)CO2)[C@@H]2O[C@H]12` (some centres not stated), the TGI amounted to 71.2 µM.

In turn, `CC(=O)OCC1OC(SC2=N/C(=C\c3cc4c(=O)c5ccccc5sc4s3)C(=O)N2c2ccccc2)C(OC(C)=O)C(OC(C)=O)C1OC(C)=O` (configuration not stated) gave a TGI of over 100 µM.

The compound `CCOC(=O)N(Cc1cccs1)c1cc(OC)c(OC)c(OC)c1` came in with a TGI of over 100 µM.

On to `COC12OC3(C4OC41)C(C(=O)O[C@H]3CO[Si](C)(C)C(C)(C)C)C2C(=O)Oc1ccccc1` (some centres not stated), for which the TGI is over 100 µM.

The subject of a further assay is OVCAR-8 ovarian. Kind of assay: inhibition of tumour cell growth, NCI panel, 48 h.
For the compound `NC(=O)c1cc2cc(Cl)cc(Cl)c2oc1=Nc1ccc(F)cc1`, the TGI is over 100 µM.

The compound `COc1ccc2nc(-n3c(/C=C/c4ccccc4O)nc4ccccc4c3=O)sc2c1` returned a TGI of over 100 µM.

`CC#CC#C/C=C1/O[C@]2(CCC(OC(C)=O)CO2)[C@@H]2O[C@H]12` (some centres not stated) had a TGI of over 100 µM.

Regarding `CC(=O)OCC1OC(SC2=N/C(=C\c3cc4c(=O)c5ccccc5sc4s3)C(=O)N2c2ccccc2)C(OC(C)=O)C(OC(C)=O)C1OC(C)=O` (configuration not stated), the TGI was over 100 µM.

Consider `CCOC(=O)N(Cc1cccs1)c1cc(OC)c(OC)c(OC)c1`, for which the TGI is over 100 µM.

`COC12OC3(C4OC41)C(C(=O)O[C@H]3CO[Si](C)(C)C(C)(C)C)C2C(=O)Oc1ccccc1` (some centres not stated) displayed a TGI of over 100 µM.

The test system of a further assay is RPMI-8226 leukemia. Kind of assay: inhibition of tumour cell growth, NCI panel, 48 h.
In the case of `NC(=O)c1cc2cc(Cl)cc(Cl)c2oc1=Nc1ccc(F)cc1`, the TGI was found to be 61.7 µM.

As to `COc1ccc2nc(-n3c(/C=C/c4ccccc4O)nc4ccccc4c3=O)sc2c1`, the TGI was 80.8 µM.

Compound `CC#CC#C/C=C1/O[C@]2(CCC(OC(C)=O)CO2)[C@@H]2O[C@H]12` (some centres not stated) came in with a TGI of 75.2 µM.

For `CC(=O)OCC1OC(SC2=N/C(=C\c3cc4c(=O)c5ccccc5sc4s3)C(=O)N2c2ccccc2)C(OC(C)=O)C(OC(C)=O)C1OC(C)=O` (configuration not stated), the TGI was over 100 µM.

In turn, `CCOC(=O)N(Cc1cccs1)c1cc(OC)c(OC)c(OC)c1` registered a TGI of 51.9 µM.

Take `COC12OC3(C4OC41)C(C(=O)O[C@H]3CO[Si](C)(C)C(C)(C)C)C2C(=O)Oc1ccccc1` (some centres not stated): the TGI was over 100 µM.

For another assay, the system named is SF-268 CNS. Nature of the assay: inhibition of tumour cell growth, NCI panel, 48 h.
As for `NC(=O)c1cc2cc(Cl)cc(Cl)c2oc1=Nc1ccc(F)cc1`, the TGI is over 100 µM.

Consider `COc1ccc2nc(-n3c(/C=C/c4ccccc4O)nc4ccccc4c3=O)sc2c1`, for which the TGI is over 100 µM.

In the case of `CC#CC#C/C=C1/O[C@]2(CCC(OC(C)=O)CO2)[C@@H]2O[C@H]12` (some centres not stated), the TGI is over 100 µM.

Turning to `CC(=O)OCC1OC(SC2=N/C(=C\c3cc4c(=O)c5ccccc5sc4s3)C(=O)N2c2ccccc2)C(OC(C)=O)C(OC(C)=O)C1OC(C)=O` (configuration not stated), the TGI was over 100 µM.

As for `CCOC(=O)N(Cc1cccs1)c1cc(OC)c(OC)c(OC)c1`, the TGI is over 100 µM.

As for `COC12OC3(C4OC41)C(C(=O)O[C@H]3CO[Si](C)(C)C(C)(C)C)C2C(=O)Oc1ccccc1` (some centres not stated), the TGI is over 100 µM.

The next assay has as its system SF-295 CNS. Nature of the assay: inhibition of tumour cell growth, NCI panel, 48 h.
Regarding `NC(=O)c1cc2cc(Cl)cc(Cl)c2oc1=Nc1ccc(F)cc1`, the TGI is 39.3 µM.

Compound `COc1ccc2nc(-n3c(/C=C/c4ccccc4O)nc4ccccc4c3=O)sc2c1` yielded a TGI of over 100 µM.

`CC#CC#C/C=C1/O[C@]2(CCC(OC(C)=O)CO2)[C@@H]2O[C@H]12` (some centres not stated) gave a TGI of over 100 µM.

Take `CC(=O)OCC1OC(SC2=N/C(=C\c3cc4c(=O)c5ccccc5sc4s3)C(=O)N2c2ccccc2)C(OC(C)=O)C(OC(C)=O)C1OC(C)=O` (configuration not stated): the TGI is over 100 µM.

`CCOC(=O)N(Cc1cccs1)c1cc(OC)c(OC)c(OC)c1` gave a TGI of over 100 µM.

`COC12OC3(C4OC41)C(C(=O)O[C@H]3CO[Si](C)(C)C(C)(C)C)C2C(=O)Oc1ccccc1` (some centres not stated) registered a TGI of over 100 µM.

Another assay has as its system SNB-75 CNS. Nature of the assay: inhibition of tumour cell growth, NCI panel, 48 h.
Compound `NC(=O)c1cc2cc(Cl)cc(Cl)c2oc1=Nc1ccc(F)cc1` gave a TGI of 30.3 µM.

Compound `COc1ccc2nc(-n3c(/C=C/c4ccccc4O)nc4ccccc4c3=O)sc2c1` gave a TGI of over 100 µM.

The compound `CC#CC#C/C=C1/O[C@]2(CCC(OC(C)=O)CO2)[C@@H]2O[C@H]12` (some centres not stated) came in with a TGI of over 100 µM.

For `CC(=O)OCC1OC(SC2=N/C(=C\c3cc4c(=O)c5ccccc5sc4s3)C(=O)N2c2ccccc2)C(OC(C)=O)C(OC(C)=O)C1OC(C)=O` (configuration not stated), the TGI is over 100 µM.

In turn, `CCOC(=O)N(Cc1cccs1)c1cc(OC)c(OC)c(OC)c1` gave a TGI of over 100 µM.

The compound `COC12OC3(C4OC41)C(C(=O)O[C@H]3CO[Si](C)(C)C(C)(C)C)C2C(=O)Oc1ccccc1` (some centres not stated) gave a TGI of over 100 µM.

For the next assay, the system named is TK-10 renal. Kind of assay: inhibition of tumour cell growth, NCI panel, 48 h.
The compound `NC(=O)c1cc2cc(Cl)cc(Cl)c2oc1=Nc1ccc(F)cc1` yielded a TGI of 30 µM.

Turning to `COc1ccc2nc(-n3c(/C=C/c4ccccc4O)nc4ccccc4c3=O)sc2c1`, the TGI is over 100 µM.

`CC#CC#C/C=C1/O[C@]2(CCC(OC(C)=O)CO2)[C@@H]2O[C@H]12` (some centres not stated) returned a TGI of over 100 µM.

The compound `CC(=O)OCC1OC(SC2=N/C(=C\c3cc4c(=O)c5ccccc5sc4s3)C(=O)N2c2ccccc2)C(OC(C)=O)C(OC(C)=O)C1OC(C)=O` (configuration not stated) came in with a TGI of over 100 µM.

Take `CCOC(=O)N(Cc1cccs1)c1cc(OC)c(OC)c(OC)c1`: the TGI is over 100 µM.

For `COC12OC3(C4OC41)C(C(=O)O[C@H]3CO[Si](C)(C)C(C)(C)C)C2C(=O)Oc1ccccc1` (some centres not stated), the TGI was over 100 µM.

Another assay concerns UACC-257 melanoma. Nature of the assay: inhibition of tumour cell growth, NCI panel, 48 h.
With `NC(=O)c1cc2cc(Cl)cc(Cl)c2oc1=Nc1ccc(F)cc1`, the TGI turned out to be 42.8 µM.

For the compound `COc1ccc2nc(-n3c(/C=C/c4ccccc4O)nc4ccccc4c3=O)sc2c1`, the TGI is over 100 µM.

`CC#CC#C/C=C1/O[C@]2(CCC(OC(C)=O)CO2)[C@@H]2O[C@H]12` (some centres not stated) yielded a TGI of 74.9 µM.

Regarding `CC(=O)OCC1OC(SC2=N/C(=C\c3cc4c(=O)c5ccccc5sc4s3)C(=O)N2c2ccccc2)C(OC(C)=O)C(OC(C)=O)C1OC(C)=O` (configuration not stated), the TGI was over 100 µM.

With `CCOC(=O)N(Cc1cccs1)c1cc(OC)c(OC)c(OC)c1`, the TGI is over 100 µM.

In turn, `COC12OC3(C4OC41)C(C(=O)O[C@H]3CO[Si](C)(C)C(C)(C)C)C2C(=O)Oc1ccccc1` (some centres not stated) displayed a TGI of over 100 µM.

The test system of another assay is UACC-62 melanoma. Nature of the assay: inhibition of tumour cell growth, NCI panel, 48 h.
`NC(=O)c1cc2cc(Cl)cc(Cl)c2oc1=Nc1ccc(F)cc1` yielded a TGI of 63.7 µM.

In the case of `COc1ccc2nc(-n3c(/C=C/c4ccccc4O)nc4ccccc4c3=O)sc2c1`, the TGI is over 100 µM.

With `CC#CC#C/C=C1/O[C@]2(CCC(OC(C)=O)CO2)[C@@H]2O[C@H]12` (some centres not stated), the TGI was determined as 36.8 µM.

In the case of `CC(=O)OCC1OC(SC2=N/C(=C\c3cc4c(=O)c5ccccc5sc4s3)C(=O)N2c2ccccc2)C(OC(C)=O)C(OC(C)=O)C1OC(C)=O` (configuration not stated), the TGI was over 100 µM.

Take `CCOC(=O)N(Cc1cccs1)c1cc(OC)c(OC)c(OC)c1`: the TGI was over 100 µM.

`COC12OC3(C4OC41)C(C(=O)O[C@H]3CO[Si](C)(C)C(C)(C)C)C2C(=O)Oc1ccccc1` (some centres not stated) displayed a TGI of over 100 µM.

The record behind these values is PubChem BioAssay (NCI).
